Assay results reported in the supplement of paper PMC10307832.

Experiments:
Assay in all cases: relative viability (nuclei count vs DMSO), 5 days (fraction); higher = more cells survive
[1] = test system: NCI-H460
Method in brief: (§1)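 For relative viability, nuclei counts in treated wells were divided by those in vehicle wells. Lung cancer cell lines had been pin-tool dosed in 1536-well plates the day after seeding and cultured for 5 days, then fixed and stained in one step (final 0.05% Triton X-100, 1% formaldehyde, 1 ug/ml Hoechst) and imaged at 4×. Doses were one drug alone or a fixed anchor-drug dose plus five library-drug doses (not always all listed) in √10 steps, and values are duplicate-plate medians.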

[2] = test system: LOU-NH91
Method in brief: as §1

[3] = test system: NCI-H1563
Method in brief: as §1

[4] = test system: CAL-12T
Method in brief: as §1

[5] = test system: NCI-H2023
Method in brief: as §1

[6] = test system: NCI-H2085
Method in brief: as §1

[7] = test system: BEN
Method in brief: as §1

[8] = test system: SK-LU-1
Method in brief: as §1

[9] = test system: NCI-H1650
Method in brief: as §1

[10] = test system: COR-L23
Method in brief: as §1

[11] = test system: NCI-H1734
Method in brief: as §1

[12] = test system: NCI-H1437
Method in brief: as §1

[13] = test system: NCI-H1975
Method in brief: as §1

[14] = test system: NCI-H1793
Method in brief: as §1

[15] = test system: NCI-H1651
Method in brief: as §1

[16] = test system: NCI-H1355
Method in brief: as §1

[17] = test system: NCI-H838
Method in brief: as §1

[18] = test system: HCC-366
Method in brief: as §1

[19] = test system: LU99A
Method in brief: as §1

[20] = test system: NCI-H358
Method in brief: as §1

COc1nc(C)cnc1NS(=O)(=O)c1cccnc1-c1ccc(-c2nnco2)cc1 [Zibotentan] + CS(=O)(=O)CCNCc1ccc(-c2ccc3ncnc(Nc4ccc(OCc5cccc(F)c5)c(Cl)c4)c3c2)o1 [Lapatinib] (partner 2 µM)
relative viability ([1]; first compound 0.08 µM): 1.04
relative viability ([1]; first compound 0.8 µM): 1.03
relative viability ([1]; first compound 2.53 µM): 1.12
relative viability ([2]; first compound 0.08 µM): 0.835
relative viability ([2]; first compound 0.253 µM): 0.662
relative viability ([2]; first compound 0.8 µM): 0.771
relative viability ([2]; first compound 2.53 µM): 0.782
relative viability ([3]; first compound 0.08 µM): 0.993
relative viability ([3]; first compound 0.253 µM): 0.535
relative viability ([3]; first compound 0.8 µM): 0.905
relative viability ([3]; first compound 2.53 µM): 0.958
relative viability ([4]; first compound 0.08 µM): 0.606
relative viability ([4]; first compound 0.8 µM): 0.55
relative viability ([4]; first compound 2.53 µM): 0.652
relative viability ([5]; first compound 0.08 µM): 0.87
relative viability ([5]; first compound 0.253 µM): 0.4
relative viability ([5]; first compound 0.8 µM): 0.651
relative viability ([5]; first compound 2.53 µM): 0.846
relative viability ([6]; first compound 0.08 µM): 0.796
relative viability ([6]; first compound 0.253 µM): 0.837
relative viability ([6]; first compound 0.8 µM): 0.764
relative viability ([6]; first compound 2.53 µM): 0.95
relative viability ([7]; first compound 0.08 µM): 0.762
relative viability ([7]; first compound 0.253 µM): 0.721
relative viability ([7]; first compound 0.8 µM): 0.68
relative viability ([7]; first compound 2.53 µM): 0.605
relative viability ([8]; first compound 0.08 µM): 0.831
relative viability ([8]; first compound 0.253 µM): 0.766
relative viability ([8]; first compound 0.8 µM): 0.928
relative viability ([8]; first compound 2.53 µM): 0.878
relative viability ([9]; first compound 0.08 µM): 0.732
relative viability ([9]; first compound 0.8 µM): 0.781
relative viability ([9]; first compound 2.53 µM): 0.813
relative viability ([10]; first compound 0.08 µM): 1.21
relative viability ([10]; first compound 0.253 µM): 0.849
relative viability ([10]; first compound 0.8 µM): 0.922
relative viability ([10]; first compound 2.53 µM): 0.798
relative viability ([11]; first compound 0.08 µM): 1.2
relative viability ([11]; first compound 0.253 µM): 1.04
relative viability ([11]; first compound 0.8 µM): 0.996
relative viability ([11]; first compound 2.53 µM): 1.19
relative viability ([12]; first compound 0.08 µM): 0.73
relative viability ([12]; first compound 0.253 µM): 0.557
relative viability ([12]; first compound 0.8 µM): 0.804
relative viability ([12]; first compound 2.53 µM): 0.827
relative viability ([13]; first compound 0.08 µM): 0.837
relative viability ([13]; first compound 0.253 µM): 0.8
relative viability ([13]; first compound 0.8 µM): 0.781
relative viability ([13]; first compound 2.53 µM): 0.884
relative viability ([14]; first compound 0.08 µM): 0.903
relative viability ([14]; first compound 0.253 µM): 0.645
relative viability ([14]; first compound 0.8 µM): 0.596
relative viability ([14]; first compound 2.53 µM): 0.938
relative viability ([15]; first compound 0.08 µM): 0.935
relative viability ([15]; first compound 0.253 µM): 0.366
relative viability ([15]; first compound 0.8 µM): 0.747
relative viability ([15]; first compound 2.53 µM): 0.854
relative viability ([16]; first compound 0.08 µM): 1.01
relative viability ([16]; first compound 0.253 µM): 1.03
relative viability ([16]; first compound 0.8 µM): 0.946
relative viability ([16]; first compound 2.53 µM): 0.977
relative viability ([17]; first compound 0.08 µM): 0.938
relative viability ([17]; first compound 0.253 µM): 0.838
relative viability ([17]; first compound 0.8 µM): 0.922
relative viability ([17]; first compound 2.53 µM): 1.06
relative viability ([18]; first compound 0.08 µM): 1.17
relative viability ([18]; first compound 0.253 µM): 0.955
relative viability ([18]; first compound 0.8 µM): 0.653
relative viability ([18]; first compound 2.53 µM): 1.02
relative viability ([19]; first compound 0.08 µM): 1.02
relative viability ([19]; first compound 0.253 µM): 1.01
relative viability ([19]; first compound 0.8 µM): 1.05
relative viability ([19]; first compound 2.53 µM): 0.949
relative viability ([20]; first compound 0.08 µM): 0.453
relative viability ([20]; first compound 0.8 µM): 0.469
relative viability ([20]; first compound 2.53 µM): 0.503
